How the values were obtained:
[1] = system: human epidennoid cells, virally infected with HSV-2; settings: cited from earlier work
[2] = system: human epidennoid cells, virally infected with HSV-2
[3] = system: human epidennoid cells, virally infected with HSV-2; settings: cited from earlier work; remark: listed apart in the source

CC(=O)OC[C@]12CCC(C)=C[C@H]1O[C@@H]1[C@H](O)[C@@H](OC(C)=O)[C@@]2(C)[C@]12CO2 [DAS]
cell viability [1]: Neither reduced cell viability
Trichothecene in vitro concentration, Cytotoxic Hi [2]: 200 ng/mL
Trichothecene in vitro concentration, Cytotoxic Lo [2]: 6 ng/mL
Trichothecene in vitro concentration, Inhibitory 80% [3]: 4.0 ng/mL
Trichothecene in vitro concentration, Inhibitory 100% [3]: 5.0 ng/mL
